We go through one compound from patent US8999322B2, “Compositions and methods for modulating hemostasis” (The United States of America National Institutes of Health …, priority 2005, dated 2015).

In one assay the target is T1, IIaWT (Homo sapiens, UniProt P00734).
T1 construct: yielding mIIa as the sole intermediate, followed by cleavage at Arg-271 to produce IIa
Put plainly: Binding of DAPA to thrombin variants (fluorescence). To be noted: fluorescence studies, data not shown. The procedure: Front face fluorescence measurements were performed in a plate reader (SpectraMax Gemini, Molecular Devices) by using black polystyrene plates (no. 3650, Corning). Reaction mixtures (100 μl) prepared in assay buffer contained increasing concentrations of DAPA (24 concentrations, 0-100 μM) with no addition, 0.5 μM IIa, or 0.5 μM IIaTAT. […] Subtraction of the intensity measured with DAPA alone yielded the fluorescence change associated with the binding of DAPA to Ha or IIaTAT. Fluorescence data were analyzed as described in ref 7 to infer the equilibrium dissociation constant.

The target of another assay is T2, IITAT (Homo sapiens, UniProt P00734, E366T/I364T/V365A).
T2 construct: made in house
Put plainly: Rescue of IITAT cleavage at Arg-271 by DAPA (areas under mIIa progress curves). The assay is classed as biochemical. As to conditions: DAPA 0-300 μM; 5.4 μM IITAT, 0.8 nM prothrombinase; read-out: DAPA concentration for half-maximal effect on rescue of second half-reaction in IITAT cleavage. The procedure:
Reaction mixtures prepared in assay buffer and maintained at 25° C., contained 5.4 μM IIWT, IITAT, or IIQ155,Q284, 20 μM PCPS, 28 nM Va, and indicated concentrations of DAPA. Cleavage was initiated by the addition of 0.8 nM Xa and samples (15 μl), withdrawn at the indicated times, were quenched by mixing with an equal volume of 2 NuPAGE LDS sample buffer (Invitrogen) containing 50 mM EDTA. Quenched samples were treated with 71 mM DTT, heated at 89° C. for 5 min, and subjected to electrophoresis (4.2 μg protein per lane) by using NuPAGE 4-12% gels and Mes running buffer (Invitrogen). Protein bands visualized by staining with Coomassie brilliant blue R-250 were imaged and analyzed by quantitative densitometry by using procedures described in detail in refs. 4 and 15. Analysis of the cleavage of FPR-IIQ320 and NaSCN-treated IIQ320 was performed as described above except that reaction mixtures contained 5.8 μM prothrombin variant, 50 μM PCPS, 60 nM Va, 40 μM DAPA, and 1 nM Xa.
Effects of DAPA were assessed by integrating areas under the progress curves for mIIa formation and its disappearance for the different prothrombin variants (FIG. 5). Normalized areas obtained in the activation of IIWT or IIQ155,Q284 were identical and were independent of DAPA varied between 0 and 300 μM for IIQ155,Q284 or 20 and 300 μM for IIWT. […]

A further assay addresses IIa. As to conditions: read-out: Kd of DAPA for IIa; cited from earlier work.
In the next assay the target is mIIa. To be noted: read-out: Kd of DAPA for mIIa; cited from earlier work.
For a further assay, the target named is T3, mIIaTAT (Homo sapiens, UniProt P00734, E366T/I364T/V365A).
T3 construct: made in house; host or cells: IITAT from HEK293 cells, cleaved in the reaction by prothrombinase
Put plainly: DAPA binding to zymogen-like mIIaTAT (interpretation of rescue data). As to conditions: possible interpretation of rescue findings. The text has this: Ligands that bind with high affinity to the proteinase are established to enhance the ability of the zymogen to adopt a proteinase-like configuration (13, 20, 23). Our findings are consistent with two possible interpretations. […] Alternatively, DAPA could act by selectively binding and favoring the proteinase in an equilibrium between zymogen-like and proteinase-like forms of mIIaTAT in which the zymogen-like state is highly favored.

In general, Kd refers to the concentration at which binding is half-saturated. As for `CCC1CCN(C(=O)C(CCCNC(=N)N)NS(=O)(=O)c2cccc3c(N(C)C)cccc23)CC1` [DAPA, dansyl-L-arginine N-(3-ethyl-1,5-pentanediyl)amide], the “equilibrium dissociation constant of DAPA for IIaWT” value at IIaWT is listed as “nanomolar”. The EC50 on IITAT was roughly 20 µM. The results for the Kd on IIa, on mIIa and at mIIaTAT were roughly 1 nM, roughly 1 nM and 30 µM, respectively.
